{"source": "patent US20060263870A1", "about": "“Hydrocarbon processing method and hydrocarbon processing system” (NIHON UNIVERSITY, priority 2005, published 2006)", "type_in_all_cases": "cell-based", "key": {"[1]": {"tested_on": "Rhodococcus erythropolis PR-4", "assay": "Treatment of various hydrocarbons: growth and localization of PR-4 in organic solvent/IB medium bilayer culture", "details": "hydrocarbon 5% (v/v) in IB medium, 28° C., 110 rpm, third day of culturing", "description": "(§1) IB liquid medium was prepared as shown below.\n(§2) As n-alkanes, n-hexane (C6), n-octane (C8), n-nonane (C9), n-decane (C10), n-undecane (C11), n-dodecane (C12), n-tridecane (C13), n-tetradecane (C14), n-pentadecane (C15), n-hexadecane (C16), n-heptadecane (C17), and n-octadecane (C18) were used.\n(§3) As test strains, Rhodococcus erythropolis PR-4 and Rhodococcus rhodochrous S-2 were used.\n(§4) On the third day after the start of culturing, the growth status of the test bacteria and sites where the test bacteria had localized were observed. When the test bacteria were present in the organic solvent, they were labeled “inside” and when they were present on the surface of the organic solvent, they were labeled “surface.” The results are shown in Table 1."}, "[2]": {"tested_on": "Rhodococcus rhodochrous S-2", "assay": "Treatment of various hydrocarbons: growth and localization of S-2 in organic solvent/IB medium bilayer culture", "details": "hydrocarbon 5% (v/v) in IB medium, 28° C., 110 rpm, third day of culturing", "description": "as §1, §2, §3, §4"}, "[3]": {"tested_on": "Rhodococcus erythropolis PR-4", "assay": "Investigation of Rhodococcus erythropolis PR-4 adaptation (two-stage culture with different hydrocarbons)", "set-up": "key: ±: growth is shown at interface of hydrocarbon and IB liquid culture medium; +: growth is shown in hydrocarbon", "details": "pristane (C19) into dodecane (C12): PR-4 first cultured 3 days with pristane, then with dodecane 5% (v/v); third day"}}, "data": [{"smiles": "CCCCCCCCCC", "note": "[n-decane]", "values": [{"measurement": "PR-4 growth", "setting": "[1]", "value": "±"}, {"measurement": "S-2 growth", "setting": "[2]", "value": "−"}]}, {"smiles": "CCCCCCCCCCCC", "note": "[n-dodecane]", "values": [{"measurement": "PR-4 growth", "setting": "[1]", "value": "±"}, {"measurement": "S-2 growth", "setting": "[2]", "value": "−"}, {"measurement": "growth", "setting": "[3]", "value": "+"}]}, {"smiles": "CCCCCCCCCCCCCCCC", "note": "[n-hexadecane]", "values": [{"measurement": "PR-4 growth", "setting": "[1]", "value": "+"}, {"measurement": "S-2 growth", "setting": "[2]", "value": "±"}]}, {"smiles": "CCCCCC", "note": "[n-hexane]", "values": [{"measurement": "PR-4 growth", "setting": "[1]", "value": "−"}, {"measurement": "S-2 growth", "setting": "[2]", "value": "−"}]}, {"smiles": "CCCCCCCC", "note": "[n-octane]", "values": [{"measurement": "PR-4 growth", "setting": "[1]", "value": "−"}, {"measurement": "S-2 growth", "setting": "[2]", "value": "−"}]}, {"smiles": "CC(C)CCCC(C)CCCC(C)CCCCC(C)CCCC(C)CCCC(C)C", "note": "(stereo not drawn) [n-squalane, squalane]", "values": [{"measurement": "PR-4 growth", "setting": "[1]", "value": "+"}, {"measurement": "S-2 growth", "setting": "[2]", "value": "±"}]}, {"smiles": "CCCCCCCCCCCCCC", "note": "[n-tetradecane]", "values": [{"measurement": "PR-4 growth", "setting": "[1]", "value": "+"}, {"measurement": "S-2 growth", "setting": "[2]", "value": "±"}]}]}
